Target: T1, aurora-A (human) (Homo sapiens, UniProt O14965)
T1 construct: purchased Upstate, Dundee, UK
T1 sequence (O14965 1-403): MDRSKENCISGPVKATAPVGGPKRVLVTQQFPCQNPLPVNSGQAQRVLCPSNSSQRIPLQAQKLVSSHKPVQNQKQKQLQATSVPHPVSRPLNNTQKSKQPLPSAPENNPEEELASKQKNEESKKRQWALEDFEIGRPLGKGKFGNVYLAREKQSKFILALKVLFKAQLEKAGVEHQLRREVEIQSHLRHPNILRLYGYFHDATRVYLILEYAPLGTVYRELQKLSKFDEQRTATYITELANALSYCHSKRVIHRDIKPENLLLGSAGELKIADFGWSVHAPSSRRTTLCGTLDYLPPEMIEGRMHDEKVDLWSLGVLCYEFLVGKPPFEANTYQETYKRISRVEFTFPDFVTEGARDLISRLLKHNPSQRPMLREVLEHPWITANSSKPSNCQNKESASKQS
Test: Aurora-A (human) kinase assay
Assay type: biochemical
Details: read-out: Activity (Aurora A activity, IC50 grading)
Method: This was achieved by measurement of incorporation of radioactive phosphate from ATP into Kemptide substrate (LRRASLG), upon phosphorylation by commercially obtained aurora-A (human, Upstate; Dundee, UK). Assays were performed using 96-well plates and appropriate assay buffers (20 mM Tris, 25 mM β-glycerophosphate, 5 mM EGTA, 1 mM DTT, 1 mM sodium vanadate, pH 7.5), into which were added 2-5 ng of active enzyme with 500 μM substrate (Kemptide). The reactions were initiated by addition of MATP mix (15 mM MgCl2+100 μM ATP with 15-25 kBq per well of [γ-^32P]-ATP) and mixtures incubated for 30 min at 30° C. Reactions were stopped by addition of an equal volume of 75 mM aq orthophosphoric acid, followed by filtration through p81 filterplates (Whatman Polyfiltronics, Kent, UK). After washing 4 times with 75 mM aq orthophosphoric acid, plates were dried, scintillant added and incorporated radioactivity measured in a scintillation counter (TopCount, Packard Instruments, Pangbourne, Berks, UK). Compounds for kinase assay were made up as 10 mM stocks in DMSO and diluted into 10% DMSO in assay buffer. Data was analysed using curve-fitting software (XLfit version 4.0.2, IDBS, Guildford, Surrey, UK) to determine IC50 values (concentration of test compound which inhibits kinase activity by 50%).

| SMILES | IC50 |
| --- | --- |
| CNS(=O)(=O)c1ccc(Nc2nccc(-c3c(C)c4n(c3C)CCNC4=O)n2)cc1OC [Example I-43, 4-[4-(6,8-Dimethyl-1-oxo-1,2,3,4-tetrahydropyrrolo[1,2-a]pyrazin-7-yl)-pyrimidin-2-ylamino]-2-methoxy-N-methyl-benzenesulfonamide] | < 1000 nM |
| Cc1c(-c2ccnc(Nc3ccc(N4CCOC4=O)cc3)n2)c(C)n2c1C(=O)NCC2 [Example I-44, 6,8-Dimethyl-7-{2-[4-(2-oxo-oxazolidin-3-yl)-phenylamino]-pyrimidin-4-yl}-3,4-dihydro-2H-pyrrolo[1,2-a]pyrazin-1-one] | < 1000 nM |
| CC(=O)Nc1ccc(Nc2nccc(-c3c(C)c4n(c3C)CCNC4=O)n2)cc1Cl [Example I-47, N-{2-Chloro-4-[4-(6,8-dimethyl-1-oxo-1,2,3,4-tetrahydro-pyrrolo[1,2-a]pyrazin-7-yl)-pyrimidin-2-ylamino]-phenyl}-acetamide] | < 1000 nM |
| Cc1cc2cc(Nc3nccc(-c4c(C)c5n(c4C)CCNC5=O)n3)ccc2[nH]1 [Example I-48, 6,8-Dimethyl-7-[2-(2-methyl-1H-indol-5-ylamino)-pyrimidin-4-yl]-3,4-dihydro-2H-pyrrolo[1,2-a]pyrazin-1-one] | < 1000 nM |
| Cc1c(-c2ccnc(Nc3cccc(-c4cnco4)c3)n2)c(C)n2c1C(=O)NCC2 [Example I-49, 6,8-Dimethyl-7-[2-(3-oxazol-5-yl-phenylamino)-pyrimidin-4-yl]-3,4-dihydro-2H-pyrrolo[1,2-a]pyrazin-1-one] | < 1000 nM |
| Cc1c(-c2ccnc(Nc3ccc(S(=O)(=O)N4CCOCC4)cc3)n2)c(C)n2c1C(=O)NCC2 [Example I-50, 6,8-Dimethyl-7-{2-[4-(morpholine-4-sulfonyl)-phenylamino]-pyrimidin-4-yl}-3,4-dihydro-2H-pyrrolo[1,2-a]pyrazin-1-one] | < 1000 nM |
| Cc1c(-c2ccnc(Nc3ccc(OCCN4CCOCC4)cc3)n2)c(C)n2c1C(=O)NCC2 [Example I-51, 6,8-Dimethyl-7-{2-[4-(2-morpholin-4-yl-ethoxy)-phenylamino]-pyrimidin-4-yl}-3,4-dihydro-2H-pyrrolo[1,2-a]pyrazin-1-one] | < 1000 nM |
| Cc1c(-c2ccnc(Nc3ccc(-c4cnco4)cc3)n2)c(C)n2c1C(=O)NCC2 [Example I-52, 6,8-Dimethyl-7-[2-(4-oxazol-5-yl-phenylamino)-pyrimidin-4-yl]-3,4-dihydro-2H-pyrrolo[1,2-a]pyrazin-1-one] | < 1000 nM |
| Cc1c(-c2ccnc(Nc3ccc(Cc4ccncc4)cc3)n2)c(C)n2c1C(=O)NCC2 [Example I-54, 6,8-Dimethyl-7-[2-(4-pyridin-4-ylmethyl-phenylamino)-pyrimidin-4-yl]-3,4-dihydro-2H-pyrrolo[1,2-a]pyrazin-1-one] | < 1000 nM |
| Cc1c(-c2ccnc(Nc3ccc(S(=O)(=O)N4CCCC4)cc3)n2)c(C)n2c1C(=O)NCC2 [Example I-55, 6,8-Dimethyl-7-{2-[4-(pyrrolidine-1-sulfonyl)-phenylamino]-pyrimidin-4-yl}-3,4-dihydro-2H-pyrrolo[1,2-a]pyrazin-1-one] | < 1000 nM |
| Cc1c(-c2ccnc(Nc3ccc(OCc4ccccc4)cc3)n2)c(C)n2c1C(=O)NCC2 [Example I-57, 7-[2-(4-Benzyloxy-phenylamino)-pyrimidin-4-yl]-6,8-dimethyl-3,4-dihydro-2H-pyrrolo[1,2-a]pyrazin-1-one] | < 10000 nM |
| Cc1c(-c2ccnc(Nc3cccc(C(=O)c4ccccc4)c3)n2)c(C)n2c1C(=O)NCC2 [Example I-58, 7-[2-(3-Benzoyl-phenylamino)-pyrimidin-4-yl]-6,8-dimethyl-3,4-dihydro-2H-pyrrolo[1,2-a]pyrazin-1-one] | < 1000 nM |

The remaining lines, values ahead:

| IC50 | SMILES |
| --- | --- |
| < 1000 nM | Cc1c(-c2ccnc(Nc3cccc(O)c3)n2)c(C)n2c1C(=O)NCC2 [Example I-31, 7-[2-(3-Hydroxy-phenylamino)-pyrimidin-4-yl]-6,8-dimethyl-3,4-dihydro-2H-pyrrolo[1,2-a]pyrazin-1-one] |
| < 100 nM | Cc1c(-c2ccnc(Nc3cccc(S(C)(=O)=O)c3)n2)c(C)n2c1C(=O)NCC2 [Example I-32, 7-[2-(3-Methanesulfonyl-phenylamino)-pyrimidin-4-yl]-6,8-dimethyl-3,4-dihydro-2H-pyrrolo[1,2-a]pyrazin-1-one] |
| < 100 nM | Cc1c(-c2ccnc(Nc3ccc(S(C)(=O)=O)cc3)n2)c(C)n2c1C(=O)NCC2 [Example I-33, 7-[2-(4-Methanesulfonyl-phenylamino)-pyrimidin-4-yl]-6,8-dimethyl-3,4-dihydro-2H-pyrrolo[1,2-a]pyrazin-1-one] |
| < 100 nM | Cc1c(-c2ccnc(Nc3cccc(CCC(=O)O)c3)n2)c(C)n2c1C(=O)NCC2 [Example I-34, 3-{3-[4-(6,8-Dimethyl-1-oxo-1,2,3,4-tetrahydro-pyrrolo[1,2-a]pyrazin-7-yl)-pyrimidin-2-ylamino]-phenyl}-propionic acid] |
| < 1000 nM | Cc1c(-c2ccnc(Nc3cccc(S(=O)(=O)N4CCOCC4)c3)n2)c(C)n2c1C(=O)NCC2 [Example I-35, 8-Dimethyl-7-{2-[3-(morpholine-4-sulfonyl)-phenylamino]-pyrimidin-4-yl}-3,4-dihydro-2H-pyrrolo[1,2-a]pyrazin-1-one] |
| < 1000 nM | Cc1ccc(Nc2nccc(-c3c(C)c4n(c3C)CCNC4=O)n2)cc1S(=O)(=O)N1CCOCC1 [Example I-36, 6,8-Dimethyl-7-{2-[4-methyl-3-(morpholine-4-sulfonyl)-phenylamino]-pyrimidin-4-yl}-3,4-dihydro-2H-pyrrolo[1,2-a]pyrazin-1-one] |
| < 1000 nM | Cc1c(-c2ccnc(Nc3ccc(N4CCSCC4)cc3)n2)c(C)n2c1C(=O)NCC2 [Example I-37, 6,8-Dimethyl-7-[2-(4-thiomorpholin-4-yl-phenylamino)-pyrimidin-4-yl]-3,4-dihydro-2H-pyrrolo[1,2-a]pyrazin-1-one] |
| < 1000 nM | COCCNS(=O)(=O)c1ccc(Nc2nccc(-c3c(C)c4n(c3C)CCNC4=O)n2)cc1 [Example I-38, 4-[4-(6,8-Dimethyl-1-oxo-1,2,3,4-tetrahydro-pyrrolo[1,2-a]pyrazin-7-yl)-pyrimidin-2-ylamino]-N-(2-methoxy-ethyl)-benzenesulfonamide] |
| < 1000 nM | Cc1ccc(Nc2nccc(-c3c(C)c4n(c3C)CCNC4=O)n2)cc1 [Example I-39, 6,8-Dimethyl-7-(2-p-tolylamino-pyrimidin-4-yl)-3,4-dihydro-2H-pyrrolo[1,2-a]pyrazin-1-one] |
| < 1000 nM | Cc1c(-c2ccnc(Nc3ccc(C(C)C(=O)O)cc3)n2)c(C)n2c1C(=O)NCC2 (centres unmarked) [Example I-40, 2-{4-[4-(6,8-Dimethyl-1-oxo-1,2,3,4-tetrahydro-pyrrolo[1,2-a]pyrazin-7-yl)-pyrimidin-2-ylamino]-phenyl}-propionic acid] |
| < 100 nM | Cc1c(-c2ccnc(Nc3cccc(OCC(=O)O)c3)n2)c(C)n2c1C(=O)NCC2 [Example I-41, {3-[4-(6,8-Dimethyl-1-oxo-1,2,3,4-tetrahydro-pyrrolo[1,2-a]pyrazin-7-yl)-pyrimidin-2-ylamino]-phenoxy}-acetic acid] |
| < 1000 nM | Cc1c(-c2ccnc(Nc3cccc(NS(C)(=O)=O)c3)n2)c(C)n2c1C(=O)NCC2 [Example I-42, N-{3-[4-(6,8-Dimethyl-1-oxo-1,2,3,4-tetrahydro-pyrrolo[1,2-a]pyrazin-7-yl)-pyrimidin-2-ylamino]-phenyl}-methanesulfonamide] |
| < 100 nM | Cc1c(-c2ccnc(Nc3ccc4c(c3)COCO4)n2)c(C)n2c1C(=O)NCC2 [Example I-45, 7-[2-(4H-Benzo[1,3]dioxin-6-ylamino)-pyrimidin-4-yl]-6,8-dimethyl-3,4-dihydro-2H-pyrrolo[1,2-a]pyrazin-1-one] |
| < 100 nM | Cc1nccc(-c2cccc(Nc3nccc(-c4c(C)c5n(c4C)CCNC5=O)n3)c2)n1 [Example I-46, 6,8-Dimethyl-7-{2-[3-(2-methyl-pyrimidin-4-yl)-phenylamino]-pyrimidin-4-yl}-3,4-dihydro-2H-pyrrolo[1,2-a]pyrazin-1-one] |
| < 100 nM | Cc1c(-c2ccnc(Nc3cccc(-c4cncnc4)c3)n2)c(C)n2c1C(=O)NCC2 [Example I-53, 6,8-Dimethyl-7-[2-(3-pyrimidin-5-yl-phenylamino)-pyrimidin-4-yl]-3,4-dihydro-2H-pyrrolo[1,2-a]pyrazin-1-one] |
| < 100 nM | Cc1c(-c2ccnc(Nc3ccc(S(=O)(=O)N4CCCCC4)cc3)n2)c(C)n2c1C(=O)NCC2 [Example I-56, 6,8-Dimethyl-7-{2-[4-(piperidine-1-sulfonyl)-phenylamino]-pyrimidin-4-yl}-dihydro-2H-pyrrolo[1,2-a]pyrazin-1-one] |
| < 100 nM | CC(=O)Nc1cccc(Nc2nccc(-c3c(C)c4n(c3C)CCNC4=O)n2)c1 [Example I-59, N-{3-[4-(6,8-Dimethyl-1-oxo-1,2,3,4-tetrahydro-pyrrolo[1,2-a]pyrazin-7-yl)-pyrimidin-2-ylamino]-phenyl}-acetamide] |

Source: US8404692B2, “Pyrimidin-4-yl-3, 4-dihydro-2H-pyrrolo [1,2A] pyrazin-1-one compounds” (Cyclacel Limited, priority 2005, dated 2013)
